Among the data in US8476253B2, “Amide derivative” (Daiichi Sankyo Company, Limited, priority 2009, dated 2013) are ID50 and Ki values, retold here.

One assay concerns muscarine M3 receptor. Nature of the assay: Effect of suppressing methacholine-induced airway contraction (in vivo, intratracheal administration). On the set-up: species or system guinea pig. The settings on record: guinea pigs, intratracheal administration 60 minutes before 30 μg/kg i.v. methacholine; AUC of increase in airway pressure over 10 minutes. A digest of the protocol: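 Anesthetized, gallamine-paralysed, ventilated male Hartley guinea pigs (350–550 g); compound in 5% glucose given intratracheally 60 min before 30 μg/kg i.v. methacholine. Airway pressure AUC over 10 min scored; ID50 from inhibition versus 5% glucose vehicle group.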

The next assay concerns the target T1, human NK2 receptor (Homo sapiens, UniProt P21452).
T1 construct: expressed in transfected cells; host or cells: COS cells
T1 sequence (P21452 1-398): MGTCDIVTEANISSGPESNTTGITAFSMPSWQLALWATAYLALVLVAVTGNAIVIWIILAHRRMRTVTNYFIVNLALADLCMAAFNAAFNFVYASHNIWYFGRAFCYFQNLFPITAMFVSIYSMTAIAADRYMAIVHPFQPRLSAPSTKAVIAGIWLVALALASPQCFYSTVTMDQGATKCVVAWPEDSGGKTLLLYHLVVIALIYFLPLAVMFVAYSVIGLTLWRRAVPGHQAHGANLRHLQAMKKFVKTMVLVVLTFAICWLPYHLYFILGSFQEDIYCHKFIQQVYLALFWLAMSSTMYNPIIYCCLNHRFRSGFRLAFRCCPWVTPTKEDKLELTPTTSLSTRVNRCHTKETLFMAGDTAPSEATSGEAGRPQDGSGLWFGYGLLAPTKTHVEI
Nature of the assay: Test for binding to human NK2 receptor. A digest of the protocol:
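Radioligand binding with [^3H]SR 48968 on cryopreserved COS cells expressing human NK2 receptor (5.0×10^5 cells/mL), in 50 mM Tris-HCl pH 7.4 with BSA, MnCl2 and protease inhibitors. Bound label collected on PEI-treated GF/B filters, counted by liquid scintillation; Ki derived from IC50 and radioligand Kd.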

In another assay the target is T2, human M3 receptor (Homo sapiens, UniProt P20309).
T2 construct: expressed in transfected cells; host or cells: CHO cells
T2 sequence (P20309 whole entry): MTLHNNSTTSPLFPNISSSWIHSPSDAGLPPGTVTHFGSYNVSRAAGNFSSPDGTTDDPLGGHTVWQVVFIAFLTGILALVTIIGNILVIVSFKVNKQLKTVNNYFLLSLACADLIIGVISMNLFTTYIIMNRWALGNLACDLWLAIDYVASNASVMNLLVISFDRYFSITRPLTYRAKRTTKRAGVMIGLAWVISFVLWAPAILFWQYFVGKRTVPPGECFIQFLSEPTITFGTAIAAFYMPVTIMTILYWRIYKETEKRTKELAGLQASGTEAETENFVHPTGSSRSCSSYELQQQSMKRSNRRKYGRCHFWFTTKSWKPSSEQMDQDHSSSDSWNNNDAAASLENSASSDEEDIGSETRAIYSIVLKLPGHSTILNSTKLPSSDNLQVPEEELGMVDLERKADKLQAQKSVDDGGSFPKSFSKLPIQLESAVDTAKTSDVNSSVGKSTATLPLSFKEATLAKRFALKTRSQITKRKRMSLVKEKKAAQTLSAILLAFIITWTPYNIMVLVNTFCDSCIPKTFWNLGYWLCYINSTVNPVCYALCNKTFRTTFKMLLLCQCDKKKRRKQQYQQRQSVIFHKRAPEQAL
Nature of the assay: Test for binding to human M3 receptor. A digest of the protocol: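 CHO-cell crude membranes expressing human M3 were incubated with [N-methyl-3H]-(−)-scopolamine methyl chloride in 50 mM Tris-HCl, 0.5 mM EDTA, pH 7.4, for 60 min at room temperature. Bound ligand was collected on PEI-pretreated glass-fibre filters and counted by liquid scintillation. Ki was calculated from IC50 and the radioligand Kd.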

The next assay concerns the target T3, substance P receptor (Cavia porcellus, UniProt P30547).
T3 construct: A preparation of a crude lung membrane sample was prepared; from tissue; host or cells: guinea-pig lung (crude membrane sample)
Nature of the assay: Test for binding to guinea-pig substance P receptor (crude lung membrane sample). On the procedure:
A preparation of a crude lung membrane sample was prepared, and a test for binding of a test substance to the sample was performed according to the method described in EP0336230A2.
The binding effect of the test substance to a substance P receptor was calculated as an affinity (Ki) of the test substance for the substance P receptor from a 50% binding concentration (IC50) and an affinity (Kd) of [^3H]substance P for the substance P receptor.

Setting [1] is: crude guinea-pig lung membrane sample, [3H]substance P, Ki from IC50 and Kd, read-out: Ki.
The mark [2] stands for this setting: COS cells expressing human NK2 receptor, [3H]SR 48968 1 nM, Ki from IC50 and Kd, read-out: Ki.
Where [3] appears, read: CHO cells expressing human M3 receptor, [N-methyl-3H]-(-)-Scopolamine methyl chloride 0.5 nM, Ki from IC50 and Kd, read-out: Ki.

Counter-ions that a name gives are not always drawn. Like-named read-outs stand apart in the source and are kept apart here.

T3 sequence (P30547 whole entry): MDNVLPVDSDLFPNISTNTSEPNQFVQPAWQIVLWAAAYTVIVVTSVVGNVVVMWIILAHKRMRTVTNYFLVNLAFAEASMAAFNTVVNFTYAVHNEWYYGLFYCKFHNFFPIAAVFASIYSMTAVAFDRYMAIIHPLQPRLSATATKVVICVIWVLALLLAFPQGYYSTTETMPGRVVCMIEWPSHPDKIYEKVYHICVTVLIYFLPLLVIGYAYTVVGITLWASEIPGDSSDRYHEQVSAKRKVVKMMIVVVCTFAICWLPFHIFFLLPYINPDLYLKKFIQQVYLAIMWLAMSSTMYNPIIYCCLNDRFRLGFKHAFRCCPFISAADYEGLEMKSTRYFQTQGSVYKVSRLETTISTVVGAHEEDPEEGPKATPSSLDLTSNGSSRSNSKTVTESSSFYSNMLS

In general, Ki refers to the dissociation constant of the complex between target and ligand, obtained from inhibition or displacement. Compound `CN(CCN1CCC(OC(=O)Nc2ccccc2-c2ccccc2)CC1)C(=O)CCCCCNc1ncc(C(=O)N(C)CCCN(C)C(=O)CO[C@H]2Cc3ccccc3C23CCN(CC[C@@]2(c4ccc(F)cc4)CN(C(=O)c4cc(C(F)(F)F)cc(C(F)(F)F)c4)CO2)CC3)cn1` [Example 14, 1-(2-{[6-({5-[{3-[({[(2S)-1′-{2-[(5R)-3-[3,5-Bis(trifluoromethyl)benzoyl]-5-(4-fluorophenyl)-1,3-oxazolidin-5-yl]ethyl}-2,3-dihydrospiro[indene-1,4′-piperidin]-2-yl]oxy}acetyl)(methyl)amino]propyl}(methyl)carbamoyl]pyrimidin-2-yl}amino)hexanoyl](methyl)amino}ethyl)piperidin-4-yl biphenyl-2-ylcarbamate trihydrochloride] yielded an ID50 in the assay on muscarine M3 receptor of 0.0129 mg/kg. In addition, the Ki on human NK2 receptor came to 0.67 nM; at human M3 receptor, 0.93 nM; on substance P receptor (setting [1]) it was 1.9 nM.

Regarding `CN(CCN1CCC(OC(=O)Nc2ccccc2-c2ccccc2)CC1)C(=O)CCCCCNc1nc2ccc(C(=O)N(C)CCCN(C)C(=O)CO[C@H]3Cc4ccccc4C34CCN(CC[C@@]3(c5ccc(F)cc5)CN(C(=O)c5cc(C(F)(F)F)cc(C(F)(F)F)c5)CO3)CC4)cc2s1` [Example 93, 1-(2-{[6-({6-[{3-[({[(2S)-1′-{2-[(5R)-3-[3,5-Bis(trifluoromethyl)benzoyl]-5-(4-fluorophenyl)-1,3-oxazolidin-5-yl]ethyl}-2,3-dihydrospiro[indene-1,4′-piperidin]-2-yl]oxy}acetyl)(methy)amino]propyl}(methyl)carbamoyl]-1,3-benzothiazol-2-yl}amino)hexanoyl](methyl)amino}ethyl)piperidin-4-yl biphenyl-2-ylcarbamate], in the assay on muscarine M3 receptor, the ID50 is 0.0372 mg/kg. The Ki came to 0.55 nM on human NK2 receptor (setting [2]), 0.6 nM at human M3 receptor (setting [3]) and 1 nM at substance P receptor (setting [1]).

Compound `CN(CCN1CCC(OC(=O)Nc2ccccc2-c2ccccc2)CC1)C(=O)CCCCCN(C)c1ccc(C(=O)N(C)CCCN(C)C(=O)CO[C@H]2Cc3ccccc3C23CCN(CC[C@@]2(c4ccc(F)cc4)CN(C(=O)c4cc(C(F)(F)F)cc(C(F)(F)F)c4)CO2)CC3)cc1` [Example 76, 1-{2-[{6-[{4-[{3-[({[(2S)-1′-{2-[(5R)-3-[3,5-Bis(trifluoromethyl)benzoyl]-5-(4-fluorophenyl)-1,3-oxazolidin-5-yl]ethyl}-2,3-dihydrospiro[indene-1,4′-piperidin]-2-yl]oxy}acetyl)(methyl)amino]propyl}(methyl)carbamoyl]phenyl}(methyl)amino]hexanoyl}(methyl)amino]ethyl}piperidin-4-yl biphenyl-2-ylcarbamate] displayed an ID50 in the assay on muscarine M3 receptor of 0.0292 mg/kg. In addition, the Ki stood at 1 nM at human NK2 receptor (setting [2]), 3.4 nM at human M3 receptor (setting [3]) and 2.7 nM at substance P receptor (setting [1]).

In turn, `Cc1cc(NCCCCCC(=O)N(C)CCN2CCC(OC(=O)Nc3ccccc3-c3ccccc3)CC2)sc1C(=O)N(C)CCCN(C)C(=O)CO[C@H]1Cc2ccccc2C12CCN(CC[C@@]1(c3ccc(F)cc3)CN(C(=O)c3cc(C(F)(F)F)cc(C(F)(F)F)c3)CO1)CC2` [Example 30, 1-(2-{[6-({5-[{3-[({[(2S)-1′-{2-[(5R)-3-[3,5-Bis(trifluoromethyl)benzoyl]-5-(4-fluorophenyl)-1,3-oxazolidin-5-yl]ethyl}-2,3-dihydrospiro[indene-1,4′-piperidin]-2-yl]oxy}acetyl)(methyl)amino]propyl}(methyl)carbamoyl]-4-methyl-2-thienyl}amino)hexanoyl](methyl)amino}ethyl)piperidin-4-yl biphenyl-2-ylcarbamate trihydrochloride] showed an ID50 in the assay on muscarine M3 receptor of 0.0088 mg/kg. In addition, the Ki on human NK2 receptor was found to be 0.71 nM; on human M3 receptor, 0.62 nM; on substance P receptor (setting [1]) it was 1.9 nM.

As for `CN(CCN1CCC(OC(=O)Nc2ccccc2-c2ccccc2)CC1)C(=O)CCCCNc1ccc(C(=O)N(C)CCCN(C)C(=O)CO[C@H]2Cc3ccccc3C23CCN(CC[C@@]2(c4ccc(F)cc4)CN(C(=O)c4cc(C(F)(F)F)cc(C(F)(F)F)c4)CO2)CC3)cc1` [Example 32, 1-(2-{[5-({4-[{3-[({[(2S)-1′-{2-[(5R)-3-[3,5-Bis(trifluoromethyl)benzoyl]-5-(4-fluorophenyl)-1,3-oxazolidin-5-yl]ethyl}-2,3-dihydrospiro[indene-1,4′-piperidin]-2-yl]oxy}acetyl)(methyl)amino]propyl}(methyl)carbamoyl]phenyl}amino)pentanoyl](methyl)amino}ethyl)piperidin-4-yl biphenyl-2-ylcarbamate trihydrochloride], the ID50 in the assay with muscarine M3 receptor was 0.0356 mg/kg. The Ki on human NK2 receptor was 0.74 nM; on human M3 receptor, 1.1 nM; on substance P receptor (setting [1]), 1.3 nM.

On to `CN(CCCCCC(=O)N(C)CCN1CCC(OC(=O)Nc2ccccc2-c2ccccc2)CC1)Cc1ccc(C(=O)N(C)CCCN(C)C(=O)CO[C@H]2Cc3ccccc3C23CCN(CC[C@@]2(c4ccc(F)cc4)CN(C(=O)c4cc(C(F)(F)F)cc(C(F)(F)F)c4)CO2)CC3)cc1` [Example 74, 1-{2-[{6-[{4-[{3-[({[(2S)-1′-{2-[(5R)-3-[3,5-Bis(trifluoromethyl)benzoyl]-5-(4-fluorophenyl)-1,3-oxazolidin-5-yl]ethyl}-2,3-dihydrospiro[indene-1,4′-piperidin]-2-yl]oxy}acetyl)(methyl)amino]propyl}(methyl)carbamoyl]benzyl}(methyl)amino]hexanoyl}(methyl)amino]ethyl}piperidin-4-yl biphenyl-2-ylcarbamate], for which, in the assay with muscarine M3 receptor, the ID50 worked out at 0.043 mg/kg. Besides, the results for the Ki at human NK2 receptor (setting [2]), at human M3 receptor (setting [3]) and on substance P receptor (setting [1]) were 0.14 nM, 0.32 nM and 0.87 nM, respectively.

The compound `CN(CCN1CCC(OC(=O)Nc2ccccc2-c2ccccc2)CC1)C(=O)CCN(C)c1ccc(C(=O)N(C)CCCN(C)C(=O)CO[C@H]2Cc3ccccc3C23CCN(CC[C@@]2(c4ccc(F)cc4)CN(C(=O)c4cc(C(F)(F)F)cc(C(F)(F)F)c4)CO2)CC3)cc1` [Example 95, 1-{2-[(N-{4-[{3-[({[(2S)-1′-{2-[(5R)-3-[3,5-Bis(trifluoromethyl)benzoyl]-5-(4-fluorophenyl)-1,3-oxazolidin-5-yl]ethyl}-2,3-dihydrospiro[indene-1,4′-piperidin]-2-yl]oxy}acetyl)(methy)amino]propyl}(methyl)carbamoyl]phenyl}-N-methyl-β-alanyl)(methyl)amino]ethyl}piperidin-4-yl biphenyl-2-ylcarbamate] returned an ID50 in the assay with muscarine M3 receptor of 0.0462 mg/kg. Besides, the inhibitory constant (Ki) at human NK2 receptor (setting [2]) was found to be 0.81 nM; at human M3 receptor (setting [3]) it was 2.1 nM; at substance P receptor, 1.4 nM.

`CN(CCN1CCC(OC(=O)Nc2ccccc2-c2ccccc2)CC1)C(=O)CCCCCNc1ccc(N(C)C(=O)CCCN(C)C(=O)CO[C@H]2Cc3ccccc3C23CCN(CC[C@@]2(c4ccc(F)cc4)CN(C(=O)c4cc(C(F)(F)F)cc(C(F)(F)F)c4)CO2)CC3)cc1` [Example 84, 1-(2-{[6-({4-[{-4-[({[(2S)-1′-{2-[(5R)-3-[3,5-Bis(trifluoromethyl)benzoyl]-5-(4-fluorophenyl)-1,3-oxazolidin-5-yl]ethyl}-2,3-dihydrospiro[indene-1,4′-piperidin]-2-yl]oxy}acetyl)(methyl)amino]butanoyl}(methyl)amino]phenyl}amino)hexanoyl](methyl)amino}ethyl)piperidin-4-yl biphenyl-2-ylcarbamate trihydrochloride]: the ID50 with muscarine M3 receptor was 0.0143 mg/kg. Also, the Ki is 0.89 nM at human NK2 receptor, 1.2 nM at human M3 receptor and 2.7 nM on substance P receptor (setting [1]).
